Source: article PMC6152937 (Bioorganic & medicinal chemistry letters, 2018)

Legend:
[1] = molecular target: α1B adrenoreceptor (Homo sapiens, UniProt P35368); test: Radio-ligand binding assay screen; conditions: cloned receptor; considered inactive
[2] = molecular target: β3 adrenoreceptor (Homo sapiens, UniProt P13945); test: Radio-ligand binding assay screen; conditions: cloned receptor; considered inactive
[3] = molecular target: 5-HT1A (Homo sapiens, UniProt P08908); test: Radio-ligand binding assay screen; conditions: cloned receptor; considered inactive
[4] = molecular target: α1Δ adrenoreceptor (Homo sapiens, UniProt P25100); test: Radio-ligand binding assay screen; conditions: cloned receptor; considered inactive
[5] = molecular target: MOR (Homo sapiens, UniProt P35372); test: Radio-ligand binding assay screen; conditions: cloned receptor; considered inactive
[6] = molecular target: 5-HT2C (Homo sapiens, UniProt P28335); test: Radio-ligand binding assay screen; conditions: cloned receptor; considered inactive
[7] = molecular target: Muscarinic receptor M3 (Homo sapiens, UniProt P20309); test: Radio-ligand binding assay screen; conditions: cloned receptor; considered inactive
[8] = molecular target: 5-HT5A (Homo sapiens, UniProt P47898); test: Radio-ligand binding assay screen; conditions: cloned receptor; considered inactive
[9] = molecular target: 5-HT3 (Homo sapiens, UniProt P46098); test: Radio-ligand binding assay screen; conditions: cloned receptor; considered inactive
[10] = molecular target: KOR (Homo sapiens, UniProt P41145); test: Radio-ligand binding assay screen; conditions: cloned receptor; considered inactive
[11] = molecular target: Dopamine receptor D5 (Homo sapiens, UniProt P21918); test: Radio-ligand binding assay screen; conditions: cloned receptor; considered inactive
[12] = molecular target: Histamine receptor H2 (Homo sapiens, UniProt P25021); test: Radio-ligand binding assay screen; conditions: cloned receptor; considered inactive
[13] = molecular target: 5-HT2A (Homo sapiens, UniProt P28223); test: Radio-ligand binding assay screen; conditions: cloned receptor; considered inactive
[14] = molecular target: DOR (Homo sapiens, UniProt P41143); test: Radio-ligand binding assay screen; conditions: cloned receptor; considered inactive
[15] = molecular target: 5-HT1D (Homo sapiens, UniProt P28221); test: Radio-ligand binding assay screen; conditions: cloned receptor; considered inactive
[16] = molecular target: Histamine receptor H1 (Homo sapiens, UniProt P35367); test: Radio-ligand binding assay screen; conditions: cloned receptor; considered inactive
[17] = molecular target: SERT (Homo sapiens, UniProt P31645); test: Radio-ligand binding assay screen; conditions: cloned transporter; considered inactive
[18] = molecular target: Dopamine receptor D1 (Homo sapiens, UniProt P21728); test: Radio-ligand binding assay screen; conditions: cloned receptor; considered inactive
[19] = molecular target: Dopamine receptor D2 (Homo sapiens, UniProt P14416); test: Radio-ligand binding assay screen; conditions: cloned receptor; considered inactive
[20] = molecular target: 5-HT1B (Homo sapiens, UniProt P28222); test: Radio-ligand binding assay screen; conditions: cloned receptor; considered inactive
[21] = molecular target: rSigma1 (Rattus norvegicus, UniProt Q9R0C9); test: Radio-ligand binding assay screen; conditions: cloned receptor; considered inactive
[22] = molecular target: β1 adrenoreceptor (Homo sapiens, UniProt P08588); test: Radio-ligand binding assay screen; conditions: cloned receptor; considered inactive
[23] = molecular target: 5-HT2B (Homo sapiens, UniProt P41595); test: Radio-ligand binding assay screen; conditions: cloned receptor; considered inactive
[24] = molecular target: rSigma2 (Rattus norvegicus, UniProt Q5U3Y7); test: Radio-ligand binding assay screen; conditions: cloned receptor; considered inactive
[25] = molecular target: Muscarinic receptor M2 (Homo sapiens, UniProt P08172); test: Radio-ligand binding assay screen; conditions: cloned receptor; considered inactive
[26] = molecular target: Histamine receptor H3 (Homo sapiens, UniProt Q9Y5N1); test: Radio-ligand binding assay screen; conditions: cloned receptor; considered inactive
[27] = molecular target: 5-HT7 (Homo sapiens, UniProt P34969); test: Radio-ligand binding assay screen; conditions: cloned receptor; considered inactive
[28] = molecular target: Muscarinic receptor M4 (Homo sapiens, UniProt P08173); test: Radio-ligand binding assay screen; conditions: cloned receptor; considered inactive
[29] = molecular target: 5-HT6 (Homo sapiens, UniProt P50406); test: Radio-ligand binding assay screen; conditions: cloned receptor; considered inactive
[30] = molecular target: α1A adrenoreceptor (Homo sapiens, UniProt P35348); test: Radio-ligand binding assay screen; conditions: cloned receptor; considered inactive
[31] = molecular target: Muscarinic receptor M1 (Homo sapiens, UniProt P11229); test: Radio-ligand binding assay screen; conditions: cloned receptor; considered inactive
[32] = molecular target: 5-HT1E (Homo sapiens, UniProt P28566); test: Radio-ligand binding assay screen; conditions: cloned receptor; considered inactive
[33] = molecular target: Muscarinic receptor MS (Homo sapiens, UniProt P08912); test: Radio-ligand binding assay screen; conditions: cloned receptor; considered inactive
[34] = molecular target: NET (Homo sapiens, UniProt P23975); test: Radio-ligand binding assay screen; conditions: cloned transporter; considered inactive
[35] = molecular target: Dopamine receptor D4 (Homo sapiens, UniProt P21917); test: Radio-ligand binding assay screen; conditions: cloned receptor; considered inactive
[36] = molecular target: β2 adrenoreceptor (Homo sapiens, UniProt P07550); test: Radio-ligand binding assay screen; conditions: cloned receptor; considered inactive
[37] = molecular target: Dopamine receptor D3 (Homo sapiens, UniProt P35462); test: Radio-ligand binding assay screen; conditions: cloned receptor; considered inactive
[38] = molecular target: Histamine receptor H4 (Homo sapiens, UniProt Q9H3N8); test: Radio-ligand binding assay screen; conditions: cloned receptor; considered inactive
[39] = molecular target: DAT (Homo sapiens, UniProt Q01959); test: Radio-ligand binding assay screen; conditions: cloned transporter; considered inactive
[40] = molecular target: α2A adrenoreceptor (Homo sapiens, UniProt P08913); test: Radio-ligand binding assay screen; conditions: cloned receptor; considered inactive
[41] = molecular target: T1, human GABAB receptor (Homo sapiens, UniProt Q9UBS5); conditions: concentrations up to 100 μM, racemic mixtures
[42] = molecular target: T1, human GABAB receptor; conditions: read-out: GABAB EC50; agonist activity, HEK293/Cre-luc, ± standard error; ref [19]; cited from earlier work

T1 sequence (Q9UBS5 15-961 limits assumed): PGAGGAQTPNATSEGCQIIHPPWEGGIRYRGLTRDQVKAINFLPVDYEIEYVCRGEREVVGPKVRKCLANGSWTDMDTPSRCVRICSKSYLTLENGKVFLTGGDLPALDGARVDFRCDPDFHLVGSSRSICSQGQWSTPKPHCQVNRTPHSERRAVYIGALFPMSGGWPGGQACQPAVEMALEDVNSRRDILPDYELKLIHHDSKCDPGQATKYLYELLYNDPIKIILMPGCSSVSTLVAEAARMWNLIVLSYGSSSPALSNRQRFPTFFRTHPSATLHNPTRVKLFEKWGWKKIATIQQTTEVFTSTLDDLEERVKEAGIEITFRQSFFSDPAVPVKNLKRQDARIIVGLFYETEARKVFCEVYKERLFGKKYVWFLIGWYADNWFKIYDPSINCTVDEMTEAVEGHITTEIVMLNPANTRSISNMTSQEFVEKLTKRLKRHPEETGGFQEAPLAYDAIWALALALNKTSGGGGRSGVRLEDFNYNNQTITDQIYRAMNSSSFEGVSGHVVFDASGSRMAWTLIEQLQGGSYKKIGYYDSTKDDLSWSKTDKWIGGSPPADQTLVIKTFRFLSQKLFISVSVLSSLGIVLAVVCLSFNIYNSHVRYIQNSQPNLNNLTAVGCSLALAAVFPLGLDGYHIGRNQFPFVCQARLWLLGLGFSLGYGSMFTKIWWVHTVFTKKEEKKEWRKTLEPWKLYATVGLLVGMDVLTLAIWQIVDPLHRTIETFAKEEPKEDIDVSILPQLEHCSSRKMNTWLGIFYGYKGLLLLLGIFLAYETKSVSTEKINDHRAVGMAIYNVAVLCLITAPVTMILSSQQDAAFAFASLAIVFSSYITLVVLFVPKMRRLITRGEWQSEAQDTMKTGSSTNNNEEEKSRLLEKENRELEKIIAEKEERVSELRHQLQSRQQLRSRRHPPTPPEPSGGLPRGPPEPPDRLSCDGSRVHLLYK
T1 sequence (O75899 42-941 partner): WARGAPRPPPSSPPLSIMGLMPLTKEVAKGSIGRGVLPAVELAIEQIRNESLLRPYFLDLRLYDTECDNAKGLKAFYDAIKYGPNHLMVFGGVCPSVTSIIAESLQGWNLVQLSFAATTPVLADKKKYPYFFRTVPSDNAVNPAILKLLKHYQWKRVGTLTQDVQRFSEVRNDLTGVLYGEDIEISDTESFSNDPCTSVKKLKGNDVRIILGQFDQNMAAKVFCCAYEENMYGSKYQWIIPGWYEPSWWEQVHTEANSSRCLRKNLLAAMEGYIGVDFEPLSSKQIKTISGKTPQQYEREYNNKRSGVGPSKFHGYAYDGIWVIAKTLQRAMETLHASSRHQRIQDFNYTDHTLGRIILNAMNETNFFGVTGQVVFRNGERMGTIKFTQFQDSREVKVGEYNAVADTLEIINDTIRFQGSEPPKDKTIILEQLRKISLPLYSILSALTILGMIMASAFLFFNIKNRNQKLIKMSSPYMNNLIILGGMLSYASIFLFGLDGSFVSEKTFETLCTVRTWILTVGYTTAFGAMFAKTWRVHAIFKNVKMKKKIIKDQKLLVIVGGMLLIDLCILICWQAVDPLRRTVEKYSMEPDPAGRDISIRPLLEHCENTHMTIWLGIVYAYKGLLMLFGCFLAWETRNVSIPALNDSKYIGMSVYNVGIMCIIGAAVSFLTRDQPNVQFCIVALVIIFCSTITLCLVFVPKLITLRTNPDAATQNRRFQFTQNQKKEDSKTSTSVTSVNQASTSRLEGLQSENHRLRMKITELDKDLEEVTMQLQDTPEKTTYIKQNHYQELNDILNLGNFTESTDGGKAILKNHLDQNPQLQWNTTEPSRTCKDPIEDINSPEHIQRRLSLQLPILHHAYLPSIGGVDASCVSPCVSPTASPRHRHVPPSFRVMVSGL
NET, sequence (P23975 whole entry): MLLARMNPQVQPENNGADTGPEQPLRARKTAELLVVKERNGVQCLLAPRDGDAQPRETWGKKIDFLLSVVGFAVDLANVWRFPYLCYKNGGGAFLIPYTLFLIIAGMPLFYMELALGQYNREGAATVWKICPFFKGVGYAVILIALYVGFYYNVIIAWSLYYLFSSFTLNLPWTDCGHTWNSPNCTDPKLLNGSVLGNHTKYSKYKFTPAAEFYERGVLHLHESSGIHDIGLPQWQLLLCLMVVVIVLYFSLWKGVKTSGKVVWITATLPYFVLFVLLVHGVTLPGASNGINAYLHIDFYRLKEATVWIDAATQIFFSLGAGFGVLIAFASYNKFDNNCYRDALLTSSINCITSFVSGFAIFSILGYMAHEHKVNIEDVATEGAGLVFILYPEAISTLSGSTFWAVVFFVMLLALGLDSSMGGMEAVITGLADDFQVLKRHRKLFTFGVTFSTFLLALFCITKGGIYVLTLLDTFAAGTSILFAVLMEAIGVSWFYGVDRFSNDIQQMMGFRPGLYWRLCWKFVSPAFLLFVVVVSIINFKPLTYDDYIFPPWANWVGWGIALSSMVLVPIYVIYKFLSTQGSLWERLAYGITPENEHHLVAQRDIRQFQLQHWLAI
Dopamine receptor D2, sequence (P14416 whole entry): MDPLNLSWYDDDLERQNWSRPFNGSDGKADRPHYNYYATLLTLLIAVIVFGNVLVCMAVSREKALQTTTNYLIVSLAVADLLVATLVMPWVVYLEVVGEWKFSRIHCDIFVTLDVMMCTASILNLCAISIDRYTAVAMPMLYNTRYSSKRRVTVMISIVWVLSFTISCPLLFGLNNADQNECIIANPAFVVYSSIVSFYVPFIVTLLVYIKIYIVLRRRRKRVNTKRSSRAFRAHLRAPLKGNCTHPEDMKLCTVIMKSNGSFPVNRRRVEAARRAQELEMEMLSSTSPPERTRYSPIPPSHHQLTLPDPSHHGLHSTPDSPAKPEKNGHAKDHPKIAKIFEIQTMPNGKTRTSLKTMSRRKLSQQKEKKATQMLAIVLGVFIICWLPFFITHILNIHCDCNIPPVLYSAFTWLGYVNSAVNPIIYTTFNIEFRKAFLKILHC
Muscarinic receptor M1, sequence (P11229 whole entry): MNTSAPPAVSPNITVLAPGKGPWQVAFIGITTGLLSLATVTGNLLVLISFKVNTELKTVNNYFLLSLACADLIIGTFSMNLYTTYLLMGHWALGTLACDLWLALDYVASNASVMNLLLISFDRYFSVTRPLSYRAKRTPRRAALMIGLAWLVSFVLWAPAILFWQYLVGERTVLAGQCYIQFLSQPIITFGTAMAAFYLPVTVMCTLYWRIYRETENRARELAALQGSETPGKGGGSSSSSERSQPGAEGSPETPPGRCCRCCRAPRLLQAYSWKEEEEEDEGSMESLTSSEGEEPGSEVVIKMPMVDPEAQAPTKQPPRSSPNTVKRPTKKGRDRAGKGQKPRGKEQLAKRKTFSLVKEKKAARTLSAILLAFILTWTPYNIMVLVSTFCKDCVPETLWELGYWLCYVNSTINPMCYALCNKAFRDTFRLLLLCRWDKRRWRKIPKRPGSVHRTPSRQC
DOR, sequence (P41143 whole entry): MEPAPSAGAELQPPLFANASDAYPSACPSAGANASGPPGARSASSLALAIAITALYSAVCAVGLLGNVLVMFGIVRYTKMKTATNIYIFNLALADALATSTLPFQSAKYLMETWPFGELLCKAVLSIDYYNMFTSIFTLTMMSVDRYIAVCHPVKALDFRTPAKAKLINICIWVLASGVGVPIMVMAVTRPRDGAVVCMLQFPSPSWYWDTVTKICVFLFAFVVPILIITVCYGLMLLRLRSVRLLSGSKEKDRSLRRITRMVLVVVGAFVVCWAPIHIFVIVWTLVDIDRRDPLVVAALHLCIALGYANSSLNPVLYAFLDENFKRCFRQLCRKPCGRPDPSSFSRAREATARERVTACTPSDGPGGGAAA
5-HT2A, sequence (P28223 whole entry): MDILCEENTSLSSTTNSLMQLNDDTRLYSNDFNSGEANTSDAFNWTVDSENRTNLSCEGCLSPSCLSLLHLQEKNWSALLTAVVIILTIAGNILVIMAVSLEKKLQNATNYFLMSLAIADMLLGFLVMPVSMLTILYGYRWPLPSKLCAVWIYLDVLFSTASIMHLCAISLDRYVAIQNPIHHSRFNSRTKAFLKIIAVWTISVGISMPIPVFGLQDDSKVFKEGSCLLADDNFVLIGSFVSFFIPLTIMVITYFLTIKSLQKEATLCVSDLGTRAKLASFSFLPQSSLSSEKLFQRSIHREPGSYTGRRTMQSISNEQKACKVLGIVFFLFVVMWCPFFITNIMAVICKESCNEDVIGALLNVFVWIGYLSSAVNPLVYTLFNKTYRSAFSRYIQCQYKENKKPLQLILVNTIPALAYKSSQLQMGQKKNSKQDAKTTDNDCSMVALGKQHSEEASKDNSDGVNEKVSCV
α2A adrenoreceptor, sequence (P08913 whole entry): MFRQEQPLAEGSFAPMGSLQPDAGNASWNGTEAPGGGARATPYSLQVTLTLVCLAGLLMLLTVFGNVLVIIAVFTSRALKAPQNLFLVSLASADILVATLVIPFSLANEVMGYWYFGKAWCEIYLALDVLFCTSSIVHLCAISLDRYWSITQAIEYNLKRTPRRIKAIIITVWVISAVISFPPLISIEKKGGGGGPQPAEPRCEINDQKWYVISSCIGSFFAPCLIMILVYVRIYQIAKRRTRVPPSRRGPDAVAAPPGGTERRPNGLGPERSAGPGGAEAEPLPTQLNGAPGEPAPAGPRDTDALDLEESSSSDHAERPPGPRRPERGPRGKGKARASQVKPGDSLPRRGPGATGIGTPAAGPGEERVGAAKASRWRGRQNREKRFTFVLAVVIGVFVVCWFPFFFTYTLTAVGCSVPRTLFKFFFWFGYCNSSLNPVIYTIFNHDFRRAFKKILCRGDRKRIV
rSigma1, sequence (Q9R0C9 whole entry): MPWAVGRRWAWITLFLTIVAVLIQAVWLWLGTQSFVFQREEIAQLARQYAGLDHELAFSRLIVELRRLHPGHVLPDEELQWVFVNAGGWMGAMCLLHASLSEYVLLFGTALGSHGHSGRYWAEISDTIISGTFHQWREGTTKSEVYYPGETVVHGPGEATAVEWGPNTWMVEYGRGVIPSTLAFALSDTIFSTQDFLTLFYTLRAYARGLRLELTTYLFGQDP

**Q.** Which “inhibition, α1B” value [1] does the source give for `CC(=O)c1ccc(C(O)C(F)(F)C(=O)C23CC4CC(CC(C4)C2)C3)cc1` (stereo not drawn) [Compound 3] here?
**A.** The value was “less than 30%”.

**Q.** And the “inhibition, β3” value [2]?
**A.** Its value is “less than 30%”.

**Q.** And the “inhibition, 5-HT1A” value [3]?
**A.** The value was “less than 30%”.

**Q.** What about the “inhibition, α1Δ” value [4] of the same compound?
**A.** The value was “less than 30%”.

**Q.** What about the “inhibition, MOR” value [5] of the same compound?
**A.** Its value is “less than 30%”.

**Q.** And the “inhibition, 5-HT2C” value [6]?
**A.** The value was “less than 30%”.

**Q.** What about the “inhibition, M3” value [7] of the same compound?
**A.** The value was “less than 30%”.

**Q.** And the “inhibition, 5-HT5A” value [8]?
**A.** The value was “less than 30%”.

**Q.** And the “inhibition, 5-HT3” value [9]?
**A.** The value was “less than 30%”.

**Q.** What about the “inhibition, KOR” value [10] of the same compound?
**A.** Its value is “less than 30%”.

**Q.** What about the “inhibition, D5” value [11] of the same compound?
**A.** Its value is “less than 30%”.

**Q.** And the “inhibition, H2” value [12]?
**A.** Its value is “less than 30%”.

**Q.** And the “inhibition, 5-HT2A” value [13]?
**A.** Its value is “less than 30%”.

**Q.** And the “inhibition, DOR” value [14]?
**A.** Its value is “less than 30%”.

**Q.** And the “inhibition, 5-HT1D” value [15]?
**A.** Its value is “less than 30%”.

**Q.** And the “inhibition, H1” value [16]?
**A.** Its value is “less than 30%”.

**Q.** What about the “inhibition, SERT” value [17] of the same compound?
**A.** Its value is “less than 30%”.

**Q.** And the “inhibition, D1” value [18]?
**A.** Its value is “less than 30%”.

**Q.** And the “inhibition, D2” value [19]?
**A.** Its value is “less than 30%”.

**Q.** And the “inhibition, 5-HT1B” value [20]?
**A.** The value was “less than 30%”.

**Q.** What about the “inhibition, rSigma1” value [21] of the same compound?
**A.** The value was “less than 30%”.

**Q.** What about the “inhibition, β1” value [22] of the same compound?
**A.** Its value is “less than 30%”.

**Q.** What about the “inhibition, 5-HT2B” value [23] of the same compound?
**A.** The value was “less than 30%”.

**Q.** What about the “inhibition, rSigma2” value [24] of the same compound?
**A.** Its value is “less than 30%”.

**Q.** And the “inhibition, M2” value [25]?
**A.** The value was “less than 30%”.

**Q.** What about the “inhibition, H3” value [26] of the same compound?
**A.** The value was “less than 30%”.

**Q.** What about the “inhibition, 5-HT7” value [27] of the same compound?
**A.** The value was “less than 30%”.

**Q.** And the “inhibition, M4” value [28]?
**A.** The value was “less than 30%”.

**Q.** And the “inhibition, 5-HT6” value [29]?
**A.** Its value is “less than 30%”.

**Q.** What about the “inhibition, α1A” value [30] of the same compound?
**A.** The value was “less than 30%”.

**Q.** And the “inhibition, M1” value [31]?
**A.** The value was “less than 30%”.

**Q.** What about the “inhibition, 5-HT1E” value [32] of the same compound?
**A.** The value was “less than 30%”.

**Q.** What about the “inhibition, MS” value [33] of the same compound?
**A.** Its value is “less than 30%”.

**Q.** What about the “inhibition, NET” value [34] of the same compound?
**A.** The value was “less than 30%”.

**Q.** What about the “inhibition, D4” value [35] of the same compound?
**A.** The value was “less than 30%”.

**Q.** And the “inhibition, β2” value [36]?
**A.** Its value is “less than 30%”.

**Q.** And the “inhibition, D3” value [37]?
**A.** Its value is “less than 30%”.

**Q.** And the “inhibition, H4” value [38]?
**A.** Its value is “less than 30%”.

**Q.** And the “inhibition, DAT” value [39]?
**A.** The value was “less than 30%”.

**Q.** And the “inhibition, α2A” value [40]?
**A.** Its value is “less than 30%”.

**Q.** Which “Agonist activity at the GABAB receptor (in words)” value (from here on “Agonist activity”) [41] does the source give for `CCc1ccc(C(O)C(F)(F)C(=O)C23CC4CC(CC(C4)C2)C3)cc1` (stereo not drawn) [Compound 4] here?
**A.** The value was “inactive”.

**Q.** Which EC50 [42] does the source give for `O=C(C12CC3CC(CC(C3)C1)C2)C(F)(F)C(O)/C=C/c1ccccc1` (stereo not drawn) [Compound 9] here?
**A.** The EC50 was 40 ± 3.59 µM.

**Q.** Which results are given for `CC(C)(C)OC(=O)NC(c1ccccc1)C(F)(F)C(=O)c1ccc2ccccc2c1` (stereo not drawn) [Compound 11]?
**A.** inhibition, α1B [1]: less than 30%; inhibition, β3 [2]: less than 30%; inhibition, 5-HT1A [3]: less than 30%; inhibition, α1Δ [4]: less than 30%; inhibition, MOR [5]: less than 30%; inhibition, 5-HT2C [6]: less than 30%; inhibition, M3 [7]: less than 30%; inhibition, 5-HT5A [8]: less than 30%; inhibition, 5-HT3 [9]: less than 30%; inhibition, KOR [10]: less than 30%; inhibition, D5 [11]: less than 30%; inhibition, H2 [12]: less than 30%; inhibition, 5-HT2A [13]: less than 30%; inhibition, DOR [14]: less than 30%; inhibition, 5-HT1D [15]: less than 30%; inhibition, H1 [16]: less than 30%; inhibition, SERT [17]: less than 30%; inhibition, D1 [18]: less than 30%; inhibition, D2 [19]: less than 30%; inhibition, 5-HT1B [20]: less than 30%; inhibition, rSigma1 [21]: less than 30%; inhibition, β1 [22]: less than 30%; inhibition, 5-HT2B [23]: less than 30%; inhibition, rSigma2 [24]: less than 30%; inhibition, M2 [25]: less than 30%; inhibition, H3 [26]: less than 30%; inhibition, 5-HT7 [27]: less than 30%; inhibition, M4 [28]: less than 30%; inhibition, 5-HT6 [29]: less than 30%; inhibition, α1A [30]: less than 30%; inhibition, M1 [31]: less than 30%; inhibition, 5-HT1E [32]: less than 30%; inhibition, MS [33]: less than 30%; inhibition, NET [34]: less than 30%; inhibition, D4 [35]: less than 30%; inhibition, β2 [36]: less than 30%; inhibition, D3 [37]: less than 30%; inhibition, H4 [38]: less than 30%; inhibition, DAT [39]: less than 30%; inhibition, α2A [40]: less than 30%

**Q.** Which “Agonist activity” value [41] does the source give for `C/C=C/C=C/C(NCc1ccccc1)C(F)(F)C(=O)c1ccc2ccccc2c1` (stereo not drawn) [Compound 16] here?
**A.** Its value is “inactive”.

**Q.** Which “Agonist activity” value [41] does the source give for `O=C(c1ccc(Cl)cc1)C(F)(F)C(NCc1ccccc1)c1ccccc1` (stereo not drawn) [Compound 17] here?
**A.** Its value is “moderate activity”.
